# Experimental data published in US20260078130A1, “NAMPT MODULATORS, PREPARATIONS, AND USES THEREOF” (SIRONAX LTD., priority 2022, published 2026).
# Where two headings read alike, the source gives them in different places.
# What was measured:
# [1] = biological target: T1, human enzyme NAMPT (full length) (Homo sapiens, UniProt P43490); assay: NMN fluorescence biochemical assay (stimulation of NMN synthesis by NAMPT); details: for EC50: concentration giving half-maximal activation, read-out: Enzymatic EC50; for Enzymatic Emax: fold change of maximal activation compared to DMSO
# T1 construct: human enzyme NAMPT (full length)
# T1 sequence (P43490 whole entry): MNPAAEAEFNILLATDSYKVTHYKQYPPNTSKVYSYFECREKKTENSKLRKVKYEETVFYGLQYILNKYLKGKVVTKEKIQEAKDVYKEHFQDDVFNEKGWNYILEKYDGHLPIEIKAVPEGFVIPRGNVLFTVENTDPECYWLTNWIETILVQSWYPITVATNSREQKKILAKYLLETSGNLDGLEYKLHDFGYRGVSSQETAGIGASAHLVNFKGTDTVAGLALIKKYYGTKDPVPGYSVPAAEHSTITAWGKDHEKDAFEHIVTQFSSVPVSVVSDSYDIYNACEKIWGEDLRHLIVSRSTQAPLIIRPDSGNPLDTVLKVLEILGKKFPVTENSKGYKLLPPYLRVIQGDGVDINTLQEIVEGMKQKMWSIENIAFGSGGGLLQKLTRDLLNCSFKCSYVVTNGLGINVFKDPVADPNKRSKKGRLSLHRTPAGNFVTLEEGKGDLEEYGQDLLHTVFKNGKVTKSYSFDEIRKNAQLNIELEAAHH
# Summary of the method: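 Full-length human NAMPT (100 nM) was preincubated 15 min at 37 °C with compound in 50 mM Tris-HCl pH 7.5, 10 mM MgCl2, 2 mM DTT, then reacted 1 h at 37 °C with 50 μM NAM, 100 μM PRPP, 4 mM ATP (stated solution concentrations). NMN was derivatised with acetophenone/KOH then formic acid and read at Ex/Em 382/445 nm; EC50 and Emax (fold over DMSO) reported.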
# [2] = system: endogenous NAMPT in U2OS cells; assay: Cellular NAD+ modulation assay (NAD/NADH-Glo, U2OS cells); type: cell-based; details: Homo sapiens; for maximal fold induction: read-out: Cellular Emax
# Experimental: Certain compounds described herein were also assayed for their ability to stimulate the endogenous NAMPT in a native cellular environment in a cellular NAD^+ modulation assay. U2OS cells were grown in McCoy's 5A medium with 10% fetal bovine serum, in a humidified incubator with an atmosphere of 95% air and 5% CO2 at 37° C. The assays were initiated by plating 30 μL of U2OS cells in a culture medium with 10% fetal bovine serum, at a density of 3000 cells per well in a Corning® 384-well White/Clear Bottom Polystyrene Microplate. The plates were incubated in 37T incubators for a period of 16 hours. Test compounds with a series of concentrations in DMSO were added to the plates in a volume of 150 nL using Echo Liquid handlers. The plates are then incubated for 24 hours. The medium was removed from the wells, then 10 μL PBS was added to each well. To each well of cells in 10 μL of PBS, 10 μL of base solution with 1% DTAB was added. The plate was briefly mixed on a plate shaker to ensure homogeneity and cell lysis (5 mins). 10p L of 0.4N HCl was added per well. The plate was coved, and all samples were incubated for 15 minutes at 60° C. Then the plate was equilibrated for 10 minutes at room temperature. 10 μL of 0.5M Trizma® base was added to each well of acid-treated cells to neutralize the acid. Finally, 30 μL of NAD/NADH-Glo™ Detection Reagent was added. The plate was gently shaken to mix the samples. The plate was incubated for 40 minutes at room temperature. Luminescence was recorded using a luminometer. The potency measurements for the test compounds were quantified and represented as EC50 (concentration of a compound that gives half-maximal activation) and Emax (fold change of a compound's maximal activation compared to DMSO).
# [3] = NMN fluorescence assay, purified human NAMPT 100 nM
# [4] = 24 hours incubation, cellular NAD+
# [5] = NMN synthesis by purified human NAMPT (100 nM)
# [6] = 24 hours incubation with compound
"EC50 [1, 3]",Enzymatic Emax [1],"EC50 [2, 4]","EC50 [1, 5]","EC50 [2, 6]",Structure (SMILES),"maximal fold induction [2, 4]","maximal fold induction [2, 6]"
< 500 nM,B (3≥B>2),< 500 nM,,,"COc1ccc(CN2C(=O)c3ccccc3C2Cc2c(C)ccnc2C#N)cc1 (stereo not drawn) [Compound 567, 3-((2-(4-methoxybenzyl)-3-oxoisoindolin-1-yl)methyl)-4-methylpicolinonitrile]",> 1.5,
< 500 nM,B (3≥B>2),< 500 nM,,,"Cn1ncc(Cl)c1CC1c2ccccc2C(=O)N1CC1CC2(CNC(=O)S2)C1 (stereo not drawn) [Compound 568, 2-((1-((4-chloro-1-methyl-1H-pyrazol-5-yl)methyl)-3-oxoisoindolin-2-yl)methyl)-5-thia-7-azaspiro[3.4]octan-6-one]",1.2 to 1.5,
,A (A>3),,500 to 5000 nM,< 500 nM,"Cc1cccc2c1C(Cc1c(Cl)ccnc1C#N)N(Cc1ccc3[nH]c(=O)oc3c1)C2=O (stereo not drawn) [Compound 272, 4-chloro-3-((7-methyl-3-oxo-2-((2-oxo-2,3-dihydrobenzo[d]oxazol-6-yl)methyl)isoindolin-1-yl)methyl)picolinonitrile]",,> 1.5
,B (3≥B>2),< 500 nM,,,"Cn1ncc(Cl)c1CC1c2ccccc2C(=O)N1C[C@@H]1CC1c1c[nH]nn1 (stereo in doubt) [Compound 548, trans 2-((2-(1H-1,2,3-triazol-4-yl)cyclopropyl)methyl)-3-((4-chloro-1-methyl-1H-pyrazol-5-yl)methyl)isoindolin-1-one]",> 1.5,
< 500 nM,B (3≥B>2),500 to 5000 nM,,,"Cn1ncc(Cl)c1CC1c2cc(F)ccc2C(=S)N1CC1CC2(CNC(=O)O2)C1 (stereo not drawn) [Compound 521, 2-((3-((4-chloro-1-methyl-1H-pyrazol-5-yl)methyl)-5-fluoro-1-thioxoisoindolin-2-yl)methyl)-5-oxa-7-azaspiro[3.4]octan-6-one]",> 1.5,
500 to 5000 nM,B (3≥B>2),< 500 nM,,,"Cc1ccc2c(c1)C(Cc1c(Cl)cnn1C)N(CC1CC3(CNC(=O)O3)C1)C2=O (stereo not drawn) [Compound 485, 2-((3-((4-chloro-1-methyl-1H-pyrazol-5-yl)methyl)-5-methyl-1-oxoisoindolin-2-yl)methyl)-5-oxa-7-azaspiro[3.4]octan-6-one]",> 1.5,
500 to 5000 nM,B (3≥B>2),500 to 5000 nM,,,"COc1ccc(CN2C(=O)c3ccccc3C2Cc2c(C#N)ccnc2C#N)cc1 (stereo not drawn) [Compound 590, 3-((2-(4-methoxybenzyl)-3-oxoisoindolin-1-yl)methyl)pyridine-2,4-dicarbonitrile]",1.2 to 1.5,
< 500 nM,A (A>3),< 500 nM,,,"Cn1ncc(Cl)c1CC1c2c(F)cccc2C(=O)N1Cc1ccc2[nH]nnc2c1 (stereo not drawn) [Compound 338, 2-((1H-benzo[d][1,2,3]triazol-5-yl)methyl)-3-((4-chloro-1-methyl-1H-pyrazol-5-yl)methyl)-4-fluoroisoindolin-1-one]",> 1.5,
,A (A>3),,500 to 5000 nM,500 to 5000 nM,"O=C1c2ccc(CN3CCOCC3)cc2C(Cc2ccccc2)N1Cc1ccc2[nH]c(=O)oc2c1 (stereo not drawn) [Compound 123, 6-((3-benzyl-5-(morpholinomethyl)-1-oxoisoindolin-2-yl)methyl)benzo[d]oxazol-2(3H)-one]",,> 1.5
,B (3≥B>2),,500 to 5000 nM,< 500 nM,"Cn1ncc(Cl)c1CC1c2ccc(F)cc2C(=O)N1CC1CC2(CNC(=O)O2)C1 (stereo not drawn) [Compound 310, 2-((1-((4-chloro-1-methyl-1H-pyrazol-5-yl)methyl)-5-fluoro-3-oxoisoindolin-2-yl)methyl)-5-oxa-7-azaspiro[3.4]octan-6-one]",,> 1.5
< 500 nM,B (3≥B>2),< 500 nM,,,"Cn1ncc(Cl)c1C[C@H]1c2ccccc2C(=O)N1C[C@H]1C[C@]2(CNC(=O)O2)C1 [Compound 406, (2s,4R)-2-(((S)-1-((4-chloro-1-methyl-1H-pyrazol-5-yl)methyl)-3-oxoisoindolin-2-yl)methyl)-5-oxa-7-azaspiro[3.4]octan-6-one]",> 1.5,
500 to 5000 nM,B (3≥B>2),< 500 nM,,,"Cn1ncc(Cl)c1CC1c2ccccc2C(=O)N1C[C@]1(F)C[C@@]2(CNC(=O)O2)C1 (stereo partly drawn) [Compound 487, (2r,4r)-2-((1-((4-chloro-1-methyl-1H-pyrazol-5-yl)methyl)-3-oxoisoindolin-2-yl)methyl)-2-fluoro-5-oxa-7-azaspiro[3.4]octan-6-one]",> 1.5,
,B (3≥B>2),,≥ 5000 nM,500 to 5000 nM,"CC(=O)Nc1ccc(CN2C(=O)c3ccccc3C2C)cc1 (stereo not drawn) [Compound 82, N-(4-((1-methyl-3-oxoisoindolin-2-yl)methyl)phenyl)acetamide]",,1.2 to 1.5
,A (A>3),,500 to 5000 nM,500 to 5000 nM,"O=C1c2ccccc2C(Cc2ncccc2Br)N1Cc1ccc2[nH]c(=O)oc2n1 (stereo not drawn) [Compound 241, 5-((1-((3-bromopyridin-2-yl)methyl)-3-oxoisoindolin-2-yl)methyl)oxazolo[5,4-b]pyridin-2(1H)-one]",,1.2 to 1.5
500 to 5000 nM,A (A>3),500 to 5000 nM,,,"COc1ccc(CN2C(=O)c3ccccc3C2Cc2c(Cl)ccn(C)c2=O)cn1 (stereo not drawn) [Compound 625, 3-((4-chloro-1-methyl-2-oxo-1,2-dihydropyridin-3-yl)methyl)-2-((6-methoxypyridin-3-yl)methyl)isoindolin-1-one]",> 1.5,
< 500 nM,A (A>3),< 500 nM,,,"Cn1ncc(Cl)c1CC1(C)c2cc(Br)ccc2C(=O)N1Cc1ccc2[nH]c(=O)oc2c1 (stereo not drawn) [Compound 419, 6-((6-bromo-1-((4-chloro-1-methyl-1H-pyrazol-5-yl)methyl)-1-methyl-3-oxoisoindolin-2-yl)methyl)benzo[d]oxazol-2(3H)-one]",> 1.5,
≥ 5000 nM,C (2≥C),500 to 5000 nM,,,"COC1CC2(CC(CN3C(=O)c4ccccc4C3Cc3c(Cl)cnn3C)C2)C1 (stereo not drawn) [Compound 599, 3-((4-chloro-1-methyl-1H-pyrazol-5-yl)methyl)-2-((6-methoxyspiro[3.3]heptan-2-yl)methyl)isoindolin-1-one]",1.2 to 1.5,
,A (A>3),,≥ 5000 nM,5000 to 50000 nM,"N#CCC1c2ccccc2C(=O)N1Cc1ccc(O)cc1 (stereo not drawn) [Compound 27, 2-(2-(4-hydroxybenzyl)-3-oxoisoindolin-1-yl)acetonitrile]",,> 1.5
,A (A>3),,500 to 5000 nM,< 500 nM,"N#Cc1ccc(F)c(CC2c3ccccc3C(=O)N2Cc2ccc3[nH]c(=O)oc3c2)c1 (stereo not drawn) [Compound 202, 4-fluoro-3-((3-oxo-2-((2-oxo-2,3-dihydrobenzo[d]oxazol-6-yl)methyl)isoindolin-1-yl)methyl)benzonitrile]",,> 1.5
500 to 5000 nM,B (3≥B>2),< 500 nM,,,"COc1ccc(CN2C(=O)c3ccccc3C2Cc2c(Cl)cnn2C)cc1 (stereo not drawn) [Compound 518, 3-((4-chloro-1-methyl-1H-pyrazol-5-yl)methyl)-2-(4-methoxybenzyl)isoindolin-1-one]",1.2 to 1.5,
,A (A>3),,< 500 nM,< 500 nM,"N#Cc1cncc(C#N)c1CC1c2ccccc2C(=O)N1Cc1ccc2[nH]c(=O)oc2c1 (stereo not drawn) [Compound 283, 4-((3-oxo-2-((2-oxo-2,3-dihydrobenzo[d]oxazol-6-yl)methyl)isoindolin-1-yl)methyl) pyridine-3,5-dicarbonitrile]",,1.2 to 1.5
,A (A>3),,500 to 5000 nM,500 to 5000 nM,"O=C1c2ccccc2CCN1Cc1ccc(O)cc1 [Compound 2, 2-(4-hydroxybenzyl)-3,4-dihydroisoquinolin-1(2H)-one]",,> 1.5
